# Like-named read-outs stand apart in the source and are kept apart here.
# What was measured:
# [1] = system: superoxide anion formation from rat neutrophils stimulated with fMLP/CB; experiment: Superoxide anion formation in rat neutrophils stimulated by fMLP/CB; type: cell-based; conditions: for IC50: rat neutrophils stimulated with fMLP (0.3 μM)/CB (5 μg/mL), 30 min; for % of inhibition of superoxide anion formation, fMLP/CB (in parentheses): at the highest concentration, rat neutrophils
# Protocol: Compound stock solution (30 mM in DMSO) is prepared and stored at −25° C. before experiment. In the superoxide anion generation experiments, neutrophils isolated from the peripheral blood of the rats are stimulated with formyl-Met-Leu-Phe (fMLP, 0.3 μM)/Cytochalasin B (CB, 5 μg/mL) for 30 min in the presence of cytochrome c, and the superoxide anion generation is measured in terms of superoxide dismutase-inhibitable cytochrome c reduction.
# [2] = system: accumulation of NO2− in RAW 264.7 cells stimulated with LPS; experiment: Nitrite (NO2−) accumulation in RAW 264.7 cells stimulated with LPS (Griess reaction); type: cell-based, Murine; conditions: for IC50: RAW 264.7 cells stimulated with LPS, 24 h, read-out: IC50 (B) accumulation of NO2− in RAW 264.7; for % of inhibition of NO2− accumulation (in parentheses): at the highest concentration, RAW 264.7, LPS
# Protocol: (§1) Nitrite is a stable metabolite of NO in the media based on Griess reaction. […] To determine whether the inhibition of NO production in RAW 264.7 cells is attributed to the decrease of iNOS protein expression, Western blotting analysis is performed. Unstimulated cells expressed very low level of iNOS protein, whereas LPS 50 ng/mL induced a large amount of iNOS protein expression. […] Thus, the blockade of iNOS transcription has a critical role as evidenced from the parallelism of the inhibition of NO production and iNOS protein expression by compound 14.
# plasmid pBR322DNA = experiment: Inhibition of oxidative DNA damage by O2− from xanthine/xanthine oxidase (agarose gel electrophoresis); conditions: 500 μM compound, xanthine (2 mM)/xanthine oxidase (0.7 U/mL), 20 min, 37° C.
# Protocol: A mixture of the plasmid pBR322DNA ([…]) and xanthine (2 mM)/xanthine oxidase (0.7 U/mL) in 10 mM phosphate buffer (pH 7.4) is incubated for 20 min with 500 μlM of superoxide dismutase, quercetin, or compounds 2, 6, 7, 13, 14, and 20 in a total volume of 20 μL at 37° C., respectively. After incubating for 20 min, a 15 μL aliquot of mixture is loaded into 1.0% agarose gel containing ethidium bromide (0.05 μg/mL) in Tris-acetate-ethylenediaminetetraacetic acid (EDTA) buffer. The electrophoresis is carried out for 30 min at 100 V. Then the gels are illuminated with UV light and photographed.
# ROS have been known to damage many biological macromolecules, for instance, with DNA being a significant target. The ability of 18β-GA derivatives to inhibit the DNA damage caused by O2^− (generated by xanthine (XA)/XO) is studied in vitro by agarose gel electrophoresis. […] For determined the antioxidant activities of these compounds, the radical scavenging activities and XO inhibitory activities of these compounds are analyzed.
# xanthine oxidase (XO) [3] = molecular target: xanthine oxidase (XO) (Homo sapiens, UniProt P47989); experiment: Xanthine oxidase activity assay; type: biochemical; conditions: xanthine as substrate, 25° C.
# Sequence of xanthine oxidase (XO) (Homo sapiens, UniProt P47989) (P47989 whole entry, species assumed): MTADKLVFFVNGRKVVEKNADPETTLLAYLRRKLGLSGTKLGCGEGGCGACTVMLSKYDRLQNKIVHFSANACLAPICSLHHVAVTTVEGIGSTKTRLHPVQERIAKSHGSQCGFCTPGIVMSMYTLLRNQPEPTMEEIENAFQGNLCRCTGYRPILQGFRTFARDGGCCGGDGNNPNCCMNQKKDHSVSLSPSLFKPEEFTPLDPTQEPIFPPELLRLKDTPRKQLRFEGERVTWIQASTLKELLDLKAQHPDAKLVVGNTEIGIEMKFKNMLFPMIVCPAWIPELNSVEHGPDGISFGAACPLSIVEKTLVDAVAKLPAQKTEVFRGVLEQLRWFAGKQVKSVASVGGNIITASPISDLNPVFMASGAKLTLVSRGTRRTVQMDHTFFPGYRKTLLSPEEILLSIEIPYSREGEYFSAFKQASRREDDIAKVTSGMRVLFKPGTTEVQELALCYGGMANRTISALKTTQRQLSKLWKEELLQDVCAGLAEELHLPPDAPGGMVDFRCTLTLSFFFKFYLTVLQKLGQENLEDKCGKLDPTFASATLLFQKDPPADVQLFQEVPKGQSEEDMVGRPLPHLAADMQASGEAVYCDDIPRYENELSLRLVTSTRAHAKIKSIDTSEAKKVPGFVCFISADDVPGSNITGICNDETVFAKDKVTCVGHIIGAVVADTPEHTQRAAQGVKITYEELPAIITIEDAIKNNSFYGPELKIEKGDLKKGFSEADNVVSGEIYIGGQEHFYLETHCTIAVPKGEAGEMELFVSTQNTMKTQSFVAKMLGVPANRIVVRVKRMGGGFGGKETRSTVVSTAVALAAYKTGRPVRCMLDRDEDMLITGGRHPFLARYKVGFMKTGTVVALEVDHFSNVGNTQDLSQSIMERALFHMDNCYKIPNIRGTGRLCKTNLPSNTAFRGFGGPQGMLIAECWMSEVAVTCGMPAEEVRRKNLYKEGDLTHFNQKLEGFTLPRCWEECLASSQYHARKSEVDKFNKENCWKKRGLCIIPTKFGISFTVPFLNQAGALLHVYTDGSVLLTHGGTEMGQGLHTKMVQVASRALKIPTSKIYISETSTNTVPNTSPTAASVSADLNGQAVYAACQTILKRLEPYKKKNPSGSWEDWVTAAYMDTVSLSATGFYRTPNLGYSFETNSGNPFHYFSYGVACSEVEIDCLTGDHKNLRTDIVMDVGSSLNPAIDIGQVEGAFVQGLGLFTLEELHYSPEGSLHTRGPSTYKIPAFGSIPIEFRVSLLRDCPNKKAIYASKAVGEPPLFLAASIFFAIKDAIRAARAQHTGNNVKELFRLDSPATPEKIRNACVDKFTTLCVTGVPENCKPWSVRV
# Sequence of xanthine oxidase (XO) (P47989 whole entry, species assumed): as above
# Protocol: (§2) The xanthine oxidase activity with xanthine as the substrate is measured at 25° C., according to the protocol of Kong and associates (Cell Mol. […] After preincubation at 25° C. for 15 min, the reaction is initiated by addition of 60 μL of substrate solution (150 μM xanthine in the same buffer). The reaction is monitored at 295 nm. The xanthine oxidase activity is expressed as micromoles of uric acid per minute.
# [4] = system: TNF-a formation from RAW 264.7 cells stimulated with LPS; conditions: for % of inhibition of TNF-a formation (in parentheses): at the highest concentration, RAW 264.7, LPS
# Protocol: Nitric oxide (NO) in the cell medium is determined by the Griess reaction. In Western blot analysis, cells are washed with PBS twice and harvested in Laemmli sodium dodecyl sulfate (SDS) sample buffer to lyse the cells. Cell lysates are separated by 10% SDS-PAGE, and electrophoretically transferred to the poly(vinylidene difluoride) membranes. Membranes are blocked for 1 h at room temperature in TBST buffer (10 mM Tris-HCl, pH 8.0, 150 mM NaCl and 0.1% Tween 20) containing 5% nonfat milk. Membranes are washed with TBST buffer and then incubated with a monoclonal anti-iNOS antibody (1:1000 dilution) for 1 h. Following washed with TBST buffer, horseradish peroxidase-labeled anti-mouse IgG (1:10,000 dilution) is added therein at room temperature for 1 h. The blots are developed using ECL Western blotting reagents. Secretory levels of TNF-a in culture supernatants are determined by the EIA kit according to the procedure of manufacturer.
# [5] = system: superoxide anion formation from rat neutrophils stimulated with PMA; experiment: Superoxide anion formation in rat neutrophils stimulated by PMA; type: cell-based; conditions: for % of inhibition of superoxide anion formation, PMA (in parentheses): at the highest concentration, rat neutrophils; for IC50: rat neutrophils stimulated with PMA
# xanthine oxidase (XO) [6] = experiment: Xanthine oxidase activity assay; type: biochemical; conditions: xanthine as substrate, 25° C., 295 nm
# Protocol: as §2
# iNOS protein expression = iNOS protein expression in LPS-stimulated RAW 264.7 cells (Western blot); type: cell-based, Murine; conditions: RAW 264.7, LPS 50 ng/mL
# Protocol: as §1
# [7] = read-out: IC50 (C) TNF-a formation in RAW 264.7, RAW 264.7 cells stimulated with LPS
# [8] = Mus musculus, RAW264.7, read-out: IC50 (C) TNF-a formation in RAW 264.7
Structure (SMILES),IC50 [1] [µM],IC50 [2] [µM],% of inhibition of NO2− accumulation (in parentheses) [2] [%],"IC50 [4, 7] [µM]","% of inhibition of superoxide anion formation, fMLP/CB (in parentheses) [1] [%]","% of inhibition of superoxide anion formation, PMA (in parentheses) [5] [%]",IC50 [5] [µM],% of inhibition of TNF-a formation (in parentheses) [4] [%],other results
CC1(C)C(=O)CC[C@]2(C)[C@H]3C(=O)C=C4[C@@H]5C[C@@](C)(C(=O)O)CC[C@]5(C)CC[C@@]4(C)[C@]3(C)CC[C@@H]12 [Compound 2],10.3 ± 5.2,> 30,45.6 ± 9.1,–,–,–,–,–,"inhibitory effect on NO accumulation in the media induced by LPS ([2]; each at 30 μM, RAW 264.7): about 40%; protective effect on oxidative DNA damage caused by O2− (plasmid pBR322DNA): significant protective effects; inhibition of XO activity (xanthine oxidase (XO) [3]): weakly inhibit"
COC(=O)C1(C)CCC2(C)CCC3(C)C(=CC(=O)C4C5(C)CCC(O)C(C)(C)C5CCC43C)C2C1 (stereo not drawn) [Compound 3],–,–,–,1.3 ± 0.4,–,–,–,–,–
CC1(C(=O)O)CCC2(C)CCC3(C)C(=CC(=O)C4C5(C)CCC(=O)OC(C)(C)C5CCC43C)C2C1 (stereo not drawn) [Compound 5],> 3,> 3,3.0 ± 4.2,> 3,27.4 ± 9.2,−8.2 ± 11.8,> 3,−0.7 ± 2.7,–
"COC(=O)C1(C)CCC2(C)CCC3(C)C(=CC(=O)C4C5(C)CCC(=O)OC(C)(C)C5CCC43C)C2C1 (stereo not drawn) [Compound 6, 3,4 lactone 30 methyl ester]",–,–,–,–,–,–,–,–,IC50 ([5]; Neutrophil): 12.9 ± 1.8 µM; protective effect on oxidative DNA damage caused by O2− (plasmid pBR322DNA): significant protective effects; IC50 (xanthine oxidase (XO) [6]): 132 ± 2.7 µM; melting point: 166 to 171 °C
C=C(C)C1CCC2(C)C(C(=O)C=C3C4CC(C)(C(=O)O)CCC4(C)CCC32C)C1(C)CCC(=O)O (stereo not drawn) [Compound 7],7 ± 2,–,–,–,–,–,–,–,protective effect on oxidative DNA damage caused by O2− (plasmid pBR322DNA): significant protective effects; inhibition of XO activity (xanthine oxidase (XO) [3]): weakly inhibit
C=C(C)C1CCC2(C)C(C(=O)C=C3C4CC(C)(C(=O)O)CCC4(C)CCC32C)C1(C)CCC(=O)OC (stereo not drawn) [Compound 8],> 10,> 10,29.6 ± 10.0,> 10,81.9 ± 7.4,7.4 ± 3.1,> 10,21.2 ± 8.7,–
C=C(C)C1CCC2(C)C(C(=O)C=C3C4CC(C)(C(=O)O)CCC4(C)CCC32C)C1(C)CCC(=O)OC(C)C (stereo not drawn) [Compound 9],> 1,> 30,39.8 ± 5.4,> 30,48.8 ± 6.6,−7.0 ± 3.0,> 1,38.4 ± 14.6,–
C=C(C)C1CCC2(C)C(C(=O)C=C3C4CC(C)(C(=O)OC)CCC4(C)CCC32C)C1(C)CCC(=O)O (stereo not drawn) [Compound 10],–,–,–,26.1 ± 14.7,–,–,–,–,–
C=C(C)C1CCC2(C)C(C(=O)C=C3C4CC(C)(C(=O)OC)CCC4(C)CCC32C)C1(C)CCC(=O)OC (stereo not drawn) [Compound 11],–,> 30,44.3 ± 10.5,–,–,–,–,–,"inhibitory effect on NO accumulation in the media induced by LPS ([2]; each at 30 μM, RAW 264.7): about 40%"
C=C(C)C1CCC2(C)C(C(=O)C=C3C4CC(C)(C(=O)OC(C)C)CCC4(C)CCC32C)C1(C)CCC(=O)OC (stereo not drawn) [Compound 12],> 30,> 30,43.0 ± 4.3,> 30,−2.5 ± 11.9,28.7 ± 15.9,> 10,47.0 ± 1.3,"inhibitory effect on NO accumulation in the media induced by LPS ([2]; each at 30 μM, RAW 264.7): about 40%"
C=C(C)C1CCC2(C)C(C(=O)C=C3C4CC(C)(C(=O)OCc5ccccc5)CCC4(C)CCC32C)C1(C)CCC(=O)OC (stereo not drawn) [Compound 13],–,–,44.5 ± 4.2,–,–,–,–,–,"IC50 ([5]; Neutrophil): 17 ± 1.5 µM; IC50 ([2]; Mus musculus, RAW264.7): > 30 µM; inhibition at 30 µM ([2]; Mus musculus, RAW264.7, each at 30 μM, RAW 264.7, read-out: inhibitory effect on NO accumulation in the media induced by LPS): ~40%; protective effect on oxidative DNA damage caused by O2− (plasmid pBR322DNA): significant protective effects; IC50 (xanthine oxidase (XO) [6]): 175 ± 0.9 µM; melting point: 32 to 38 °C; IC50 [4, 8]: 13.7 ± 4.3 µM"
C=C(C)C1CCC2(C)C(C(=O)C=C3C4CC(C)(C(=O)NC(C)C)CCC4(C)CCC32C)C1(C)CCC(=O)OC (stereo not drawn) [Compound 14],–,–,–,–,–,–,–,–,"IC50 ([5]; Neutrophil): 15.6 ± 1.7 µM; IC50 ([2]; Mus musculus, RAW264.7): 13.1 ± 5 µM; inhibition of iNOS protein expression (iNOS protein expression): significantly inhibited the iNOS protein expression; protective effect on oxidative DNA damage caused by O2− (plasmid pBR322DNA): significant protective effects; IC50 (xanthine oxidase (XO) [6]): 192 ± 2.7 µM; melting point: 80 to 85 °C"
C=C(C)C1CCC2(C)C(C(=O)C=C3C4CC(C)(C(=O)Nc5ccccc5)CCC4(C)CCC32C)C1(C)CCC(=O)OC (stereo not drawn) [Compound 15],–,–,–,15.5 ± 3.2,–,–,–,–,–
CC1(C(=O)OCc2ccccc2)CCC2(C)CCC3(C)C(=CC(=O)C4C5(C)CCC(=O)OC(C)(C)C5CCC43C)C2C1 (stereo not drawn) [Compound 16],> 30,> 10,−2.3 ± 4.6,> 10,−22.9 ± 7.6,−10.7 ± 10.2,> 30,25.3 ± 9.9,–
C=C(C)C1CCC2(C)C(C(=O)C=C3C4CC(C)(C(=O)OCc5ccccc5)CCC4(C)CCC32C)C1(C)CCC(=O)O (stereo not drawn) [Compound 17],–,–,–,2.3 ± 0.5,–,–,–,–,–
CC(C)NC(=O)C1(C)CCC2(C)CCC3(C)C(=CC(=O)C4C5(C)CCC(=O)OC(C)(C)C5CCC43C)C2C1 (stereo not drawn) [Compound 18],> 30,> 10,30.0 ± 11.9,> 10,2.7 ± 12.5,48.2 ± 8.4,> 30,9.7 ± 4.7,–
CC1(C(=O)Nc2ccccc2)CCC2(C)CCC3(C)C(=CC(=O)C4C5(C)CCC(=O)OC(C)(C)C5CCC43C)C2C1 (stereo not drawn) [Compound 19],> 10,> 30,20.5 ± 2.7,> 30,−1.6 ± 4.4,26.9 ± 3.0,> 3,45.2 ± 14.6,–
C=C(C)C1CCC2(C)C(C(=O)C=C3C4CC(C)(C(=O)NC(C)C)CCC4(C)CCC32C)C1(C)CCC(=O)O (stereo not drawn) [Compound 20],9.8 ± 5.2,–,–,–,–,–,–,–,protective effect on oxidative DNA damage caused by O2− (plasmid pBR322DNA): significant protective effects; inhibition of XO activity (xanthine oxidase (XO) [3]): weakly inhibit
C=C(C)C1CCC2(C)C(C(=O)C=C3C4CC(C)(C(=O)Nc5ccccc5)CCC4(C)CCC32C)C1(C)CCC(=O)O (stereo not drawn) [Compound 21],–,–,–,27.7 ± 7.2,–,–,–,–,–
"CC(=N)NCc1cccc(CN)c1 [Compound 1400W, N-(3-aminomethyl) benzylacetamidine, reference compound]",–,1.5 ± 0.2,–,–,–,–,–,–,–
"c1ccc2c(c1)[I+]c1ccccc1-2 [DPI, reference compound]",2.7 ± 2,–,–,–,–,–,1.8 ± 0.4,–,–
"O=c1c(-c2ccc(O)cc2)coc2cc(O)cc(O)c12 [Genistein, genistein, reference compound]",–,–,–,–,–,–,–,–,"IC50 [4, 8]: 26.5 ± 9.1 µM"

# Source: patent US8329940B2, “18β-glycyrrhetinic acid derivatives and synthetic method thereof” (Kaohsiung Medical University, priority 2009, dated 2012)
